System: 991263-137-R1-J2-PDC complex spheroid viability
Experiment: Anticancer human tumor 991263-137-R1-J2-PDC patient-derived colon adenocarcinoma cell line growth inhibition [POLQ]
Conditions: for IC50: curve of first compound; for viability, T/C: stronger effect = lower value
Procedure, shortened: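 PDC + HUVEC + MSC complex spheroids; POLQ inhibitors ± partner drugs; top conc. at/near clinical Cmax, else 10 microM (SN-38 1 microM), half-log dilutions; 37 degrees C, 5% CO2.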

[1] = second compound 0.0316 µM, first compound 0.0316 µM
[2] = second compound 0.0316 µM, first compound 0.1 µM
[3] = second compound 0.0316 µM, first compound 0.316 µM
[4] = second compound 0.0316 µM, first compound 1 µM
[5] = second compound 0.0316 µM, first compound 3.16 µM
[6] = second compound 0.0316 µM, first compound 10 µM
[7] = second compound 0.1 µM, first compound 0.0316 µM
[8] = second compound 0.1 µM, first compound 0.1 µM
[9] = second compound 0.1 µM, first compound 0.316 µM
[10] = second compound 0.1 µM, first compound 1 µM
[11] = second compound 0.1 µM, first compound 3.16 µM
[12] = second compound 0.1 µM, first compound 10 µM
[13] = second compound 0.316 µM, first compound 0.0316 µM
[14] = second compound 0.316 µM, first compound 0.1 µM
[15] = second compound 0.316 µM, first compound 0.316 µM
[16] = second compound 0.316 µM, first compound 1 µM
[17] = second compound 0.316 µM, first compound 3.16 µM
[18] = second compound 0.316 µM, first compound 10 µM
[19] = second compound 1 µM, first compound 0.0316 µM
[20] = second compound 1 µM, first compound 0.1 µM
[21] = second compound 1 µM, first compound 0.316 µM
[22] = second compound 1 µM, first compound 1 µM
[23] = second compound 1 µM, first compound 3.16 µM
[24] = second compound 1 µM, first compound 10 µM
[25] = second compound 3.16 µM, first compound 0.0316 µM
[26] = second compound 3.16 µM, first compound 0.1 µM
[27] = second compound 3.16 µM, first compound 0.316 µM
[28] = second compound 3.16 µM, first compound 1 µM
[29] = second compound 3.16 µM, first compound 3.16 µM
[30] = second compound 3.16 µM, first compound 10 µM
[31] = second compound 10 µM, first compound 0.0316 µM
[32] = second compound 10 µM, first compound 0.1 µM
[33] = second compound 10 µM, first compound 0.316 µM
[34] = second compound 10 µM, first compound 1 µM
[35] = second compound 10 µM, first compound 3.16 µM
[36] = second compound 10 µM, first compound 10 µM
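Also: spheroids exposed to compounds for 7 days before readout.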
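For viability, T/C in this document: 100% = DMSO vehicle control viability.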

Compound: C#Cc1c(F)ccc2cc(O)cc(-c3ncc4c(N5CC6CCC(C5)N6)nc(OCC56CCCN5CC(F)C6)nc4c3F)c12 (stereo unspecified) + COC1C(OC(N)=O)C(O)C(Oc2ccc3c(O)c(NC(=O)c4ccc(O)c(CC=C(C)C)c4)c(=O)oc3c2C)OC1(C)C
- IC50 (second compound 0.0316 µM): > 10 µM
- IC50 (second compound 0.1 µM): > 10 µM
- IC50 (second compound 0.316 µM): > 10 µM
- IC50 (second compound 1 µM): > 10 µM
- IC50 (second compound 3.16 µM): > 10 µM
- IC50 (second compound 10 µM): > 10 µM
- viability, T/C [1]: 103%
- viability, T/C [2]: 107%
- viability, T/C [3]: 105%
- viability, T/C [4]: 109%
- viability, T/C [5]: 108%
- viability, T/C [6]: 95.1%
- viability, T/C [7]: 103%
- viability, T/C [8]: 106%
- viability, T/C [9]: 99.4%
- viability, T/C [10]: 88.2%
- viability, T/C [11]: 116%
- viability, T/C [12]: 104%
- viability, T/C [13]: 98.9%
- viability, T/C [14]: 120%
- viability, T/C [15]: 118%
- viability, T/C [16]: 91.5%
- viability, T/C [17]: 114%
- viability, T/C [18]: 92.7%
- viability, T/C [19]: 95.4%
- viability, T/C [20]: 113%
- viability, T/C [21]: 112%
- viability, T/C [22]: 107%
- viability, T/C [23]: 117%
- viability, T/C [24]: 90.6%
- viability, T/C [25]: 104%
- viability, T/C [26]: 123%
- viability, T/C [27]: 122%
- viability, T/C [28]: 121%
- viability, T/C [29]: 109%
- viability, T/C [30]: 104%
- viability, T/C [31]: 102%
- viability, T/C [32]: 102%
- viability, T/C [33]: 102%
- viability, T/C [34]: 110%
- viability, T/C [35]: 102%
- viability, T/C [36]: 91.6%

Compound: C=CC(=O)N1CCN(c2nc(=O)n(-c3c(C)ccnc3C(C)C)c3nc(-c4c(O)cccc4F)c(F)cc23)C(C)C1 (stereo unspecified) + COC1C(OC(N)=O)C(O)C(Oc2ccc3c(O)c(NC(=O)c4ccc(O)c(CC=C(C)C)c4)c(=O)oc3c2C)OC1(C)C
- IC50 (second compound 0.0316 µM): > 10 µM
- IC50 (second compound 0.1 µM): > 10 µM
- IC50 (second compound 0.316 µM): > 10 µM
- IC50 (second compound 1 µM): > 10 µM
- IC50 (second compound 3.16 µM): > 10 µM
- IC50 (second compound 10 µM): > 10 µM
- viability, T/C [1]: 114%
- viability, T/C [2]: 123%
- viability, T/C [3]: 115%
- viability, T/C [4]: 103%
- viability, T/C [5]: 104%
- viability, T/C [6]: 93.3%
- viability, T/C [7]: 108%
- viability, T/C [8]: 129%
- viability, T/C [9]: 115%
- viability, T/C [10]: 115%
- viability, T/C [11]: 114%
- viability, T/C [12]: 95.5%
- viability, T/C [13]: 115%
- viability, T/C [14]: 124%
- viability, T/C [15]: 109%
- viability, T/C [16]: 98.8%
- viability, T/C [17]: 133%
- viability, T/C [18]: 99.9%
- viability, T/C [19]: 107%
- viability, T/C [20]: 106%
- viability, T/C [21]: 110%
- viability, T/C [22]: 120%
- viability, T/C [23]: 115%
- viability, T/C [24]: 119%
- viability, T/C [25]: 98.8%
- viability, T/C [26]: 110%
- viability, T/C [27]: 109%
- viability, T/C [28]: 114%
- viability, T/C [29]: 104%
- viability, T/C [30]: 122%
- viability, T/C [31]: 88.3%
- viability, T/C [32]: 124%
- viability, T/C [33]: 123%
- viability, T/C [34]: 109%
- viability, T/C [35]: 117%
- viability, T/C [36]: 104%

Compound: CCc1cc2c(N3CCc4c(cc(Cn5ccnc5)cc4-c4cn(C)nc4C(F)(F)F)C3=O)cc(C)nc2c(OC)n1 + COC1C(OC(N)=O)C(O)C(Oc2ccc3c(O)c(NC(=O)c4ccc(O)c(CC=C(C)C)c4)c(=O)oc3c2C)OC1(C)C
- IC50 (second compound 0.0316 µM): > 10 µM
- IC50 (second compound 0.1 µM): > 10 µM
- IC50 (second compound 0.316 µM): > 10 µM
- IC50 (second compound 1 µM): > 10 µM
- IC50 (second compound 3.16 µM): > 10 µM
- IC50 (second compound 10 µM): > 10 µM
- viability, T/C [1]: 108%
- viability, T/C [2]: 89.5%
- viability, T/C [3]: 103%
- viability, T/C [4]: 91.4%
- viability, T/C [5]: 100%
- viability, T/C [6]: 79.9%
- viability, T/C [7]: 109%
- viability, T/C [8]: 117%
- viability, T/C [9]: 102%
- viability, T/C [10]: 89.1%
- viability, T/C [11]: 106%
- viability, T/C [12]: 101%
- viability, T/C [13]: 99.6%
- viability, T/C [14]: 113%
- viability, T/C [15]: 95.9%
- viability, T/C [16]: 92.2%
- viability, T/C [17]: 100%
- viability, T/C [18]: 88.9%
- viability, T/C [19]: 97.4%
- viability, T/C [20]: 93.8%
- viability, T/C [21]: 81.1%
- viability, T/C [22]: 95.8%
- viability, T/C [23]: 106%
- viability, T/C [24]: 82.2%
- viability, T/C [25]: 105%
- viability, T/C [26]: 113%
- viability, T/C [27]: 101%
- viability, T/C [28]: 102%
- viability, T/C [29]: 102%
- viability, T/C [30]: 86.1%
- viability, T/C [31]: 95.4%
- viability, T/C [32]: 104%
- viability, T/C [33]: 89.8%
- viability, T/C [34]: 105%
- viability, T/C [35]: 86.4%
- viability, T/C [36]: 89.4%

Reference: PubChem BioAssay AID1963828 (Molecular Pharmacology Branch, DTP, NCI, 2024)
